Data reported in patent US11339163B2, “BRaf inhibitors and use thereof for treatment of cutaneous reactions” (Lutris Pharma Ltd., priority 2017, dated 2022).
≈ marks a conversion by molar mass, not a printed value. Like-named read-outs stand apart in the source and are kept apart here.

Tests used:
[1] = test system: BALB/c-3T3 mouse fibroblasts; test: 3T3 neutral red uptake phototoxicity assay; assay type: cell-based; conditions: for IC50: Mus musculus, BALB/c3T3, light or radiation study
Protocol: Therefore, the compounds of the present disclosure were screened for phototoxicity using the 3T3 natural red uptake assay.
In brief, BALB/c-3T3 mouse fibroblasts (originally obtained from ATCC) were seeded in 96-well plates at 12,000 cells per well, and grown for 24 hr. Test compounds and the positive control (chlorpromazine) were solubilized and serially diluted in DMSO. The negative control (histidine) was solubilized and diluted in HBSS. A dilution for all test articles was then made into HBSS at the final testing concentrations. At the start of the assay, the growth medium was removed from the plates and replaced with test agent dilution. Six replicates were used for each concentration. Cells were incubated in the dark with test article for 1 h, exposed to UVA light (2.5 J/cm2 over 18 min) and incubated 24 hrs. in the dark. A parallel non-irradiated plate was treated similarly, except it was stored in the dark, rather than illuminated.
For Neutral Red staining, medium was removed and fresh medium containing 25 μg/mL of Neutral Red (Sigma) was added. After three hours incubation, the cells were washed with PBS, and the cellular dye was solubilized with 1% acetic acid in 50% ethanol. Cellular Neutral Red was measured by its absorbance at 540 nm.
Data analysis: An IC50 (concentration that causes 50% reduction in viability) was calculated for each condition by linear interpolation.
A Photo-Irritation Factor (PIF) was calculated: PIF=IC50(−Irr)/IC50(+Irr)
PIF>5 indicates phototoxicity; 2<PIF<5 indicates probable phototoxicity; PIF<2 indicates no phototoxicity
In addition, the Mean Photo Effect (MPE) was calculated by comparison of the complete concentration-response curves. MPE is a weighted average of the difference in response of equivalent doses normalized by the shift in IC50.
MPE>0.15 indicates phototoxicity; 0.1<MPE<0.15 indicates probable phototoxicity; MPE<0.1 indicates no phototoxicity.

[2] = test system: ERK phosphorylation in HEKa cells; test: phospho-ERK in HEKa cells following EGFR inhibitors (Western blot); assay type: cell-based, human
Protocol: Human normal keratinocyte cells HEKa were purchased from Gibco Rhenium and seeded in 10 cm dishes (300,000 cells/dish) and incubated overnight at 37° C., 5% CO2. Next morning, the medium was replaced to a starvation medium for 2 hours and then the cells were treated for 2 additional hours with the test compounds. Post incubation, the cells were lyzed with RIPA and the protein extracts were analyzed by western blot for Phospho-ERK and total ERK. Untreated cells and 0.1% DMSO treated cells were used as negative control. HKGS growth factors was used as a positive control.
Western blot: 7.5 μg of total extract was loaded on 10% acrylamide gel. Following transfer, the membranes were blocked with TBST/5% skimmed milk and then incubated with Mouse anti Phospho-ERK (1:1000 in TBST 5% BSA, ON at 4° C.) and goat anti Mouse HRP (1:10,000 in TBST 5% BSA, 1-hour RT). The membranes were exposed using SuperSignal West Pico Chemiluminescent Substrate.
The HRP was then inactivated by incubating the membranes for 1 hour with 0.5% sodium azide Following washes and ECL exposure in order to ensure absence of signal, the membranes were re-blocked for 15 min with TBST/5% skimmed milk and then incubated with Rabbit anti total ERK2 (1:500 in TBST 5% BSA, ON at 4° C.), goat anti Rabbit HRP (1:5,000 in TBST 5% BSA, 1-hour RT) and finally exposed using the SuperSignal West Pico Chemiluminescent Substrate. The films were scanned and the signal were quantified using ImageJ software. The results were calculated as Phospho-ERK/total ERK.
HKGS was used as a positive control.

[3] = MPE>0.15 phototoxicity, 0.1-0.15 probable, <0.1 none
[4] = non-irradiated, Neutral Red, read-out: Cell Viability IC50 Minus UVA
[5] = PIF=IC50(−Irr)/IC50(+Irr), >5 phototoxicity, 2-5 probable, <2 none

Compound | Comment (photo-toxicity assessment) [1] | Mean MPE [1, 3] | IC50 [1, 4] | Mean PIF [1, 5] | further results
CN(C)CCCN1c2ccccc2Sc2ccc(Cl)cc21 [Chloropromazine, chlorpromazine] | Phototoxic | 0.477 | 31 µg/mL (≈ 97.2 µM) | 31.6 | –
Cc1ccc2c(Nc3ccc(Cl)cc3)nccc2c1Nc1ncccc1-c1ncnc2[nH]cnc12 [Compound C-1] | Non | – | – | – | phototoxicity (3T3 NRU), stated in words [1]: did not show phototoxicity; IC50 ([1]; 0.3 h, read-out: Cell Viability IC50 Plus UVA): 18.1 µg/mL; IC50 ([1]; read-out: Cell Viability IC50 Minus UVA): 14 µg/mL (≈ 29.2 µM); Mean MPE ([1]; mouse, 24 h): −0.011; Mean PIF ([1]; mouse, 24 h): 0.8
C#Cc1cccc(Nc2ncnc3cc(OCCOC)c(OCCOC)cc23)c1 [Erlotinib, erlotinib, reference compound] | – | – | – | – | phospho ERK compared to HKGS treated cells [2]: decreased
N[C@@H](Cc1c[nH]cn1)C(=O)O [Histidine, histidine] | – | 0.036 | > 1000 µg/mL | 1 | IC50 ([1]; 0.3 h, UVA 2.5 J/cm2 over 18 min, Neutral Red, read-out: Cell Viability IC50 Plus UVA): > 1000 µg/mL
